Test: xn = mol fraction of the nth substance listed

CCCC[N+](CCCC)(CCCC)CCCC.[Cl-] + C[C@@H](O)[C@H](N)C(=O)O
Conditions | viscosity [mPa·s]
313.15 K, 101 kPa, x1 = 0.9 | 633

CC(O)C(C)O (stereo not drawn) + C[N+](C)(C)CCO.[Cl-]
viscosity [mPa·s], 101.3 kPa
Conditions | 303.15 K | 308.15 K | 313.15 K | 318.15 K | 323.15 K
x2 = 0.2 | 71.79 | 53.5 | 40.72 | 31.73 | 25.22
x2 = 0.25 | 84.88 | 63.93 | 48.73 | 38.16 | 30.43

OCCOCCO + C[N+](C)(C)CCO.[Cl-]
viscosity [mPa·s], 101 kPa
Conditions | 293.15 K | 298.15 K | 303.15 K | 313.15 K | 323.15 K
x1 = 0.667 | 52.49 | – | 50.39 | 35.69 | 25.79
x2 = 0.25 | – | 55.1 | – | – | –

CC(C)CCCC(C)CCCC(C)CCCC(C)C (stereo not drawn) + Cc1ccccc1
viscosity [mPa·s], 100 kPa
Conditions | 298.15 K | 313.15 K
x2 = 0.4932 | 2.255 | 1.658
x2 = 0.7449 | 1.263 | 0.974

Cc1ccc(C)cc1 + Cc1ccccc1
Conditions | viscosity [mPa·s]
293.15 K, 101.33 kPa, x2 = 0.1516 | 0.636
293.15 K, 101.33 kPa, x2 = 0.3137 | 0.624
293.15 K, 101.33 kPa, x2 = 0.6003 | 0.6
293.15 K, 101.33 kPa, x2 = 0.8519 | 0.588
298.15 K, 101 kPa, x1 = 0.1 | 0.5595
298.15 K, 101 kPa, x1 = 0.2 | 0.565
298.15 K, 101 kPa, x1 = 0.3 | 0.5703
298.15 K, 101 kPa, x1 = 0.4 | 0.5756
298.15 K, 101 kPa, x1 = 0.5 | 0.5807
298.15 K, 101 kPa, x1 = 0.6 | 0.5857
298.15 K, 101 kPa, x1 = 0.7 | 0.5907
298.15 K, 101 kPa, x1 = 0.8 | 0.5955
298.15 K, 101 kPa, x1 = 0.9 | 0.6001
303.15 K, 101.33 kPa, x2 = 0.1516 | 0.56
303.15 K, 101.33 kPa, x2 = 0.3137 | 0.547
303.15 K, 101.33 kPa, x2 = 0.6003 | 0.532
303.15 K, 101.33 kPa, x2 = 0.8519 | 0.526
313.15 K, 101.33 kPa, x2 = 0.1516 | 0.509
313.15 K, 101.33 kPa, x2 = 0.3137 | 0.5
313.15 K, 101.33 kPa, x2 = 0.6003 | 0.491
313.15 K, 101.33 kPa, x2 = 0.8519 | 0.47
323.15 K, 101.33 kPa, x2 = 0.1516 | 0.459
323.15 K, 101.33 kPa, x2 = 0.3137 | 0.45
323.15 K, 101.33 kPa, x2 = 0.6003 | 0.437
323.15 K, 101.33 kPa, x2 = 0.8519 | 0.423

O=Cc1ccccc1 + Cc1ccccc1
293.15 K, 100 kPa
Conditions | viscosity [mPa·s]
x1 = 0.1053 | 0.652
x1 = 0.2063 | 0.721
x1 = 0.2998 | 0.768
x1 = 0.4022 | 0.844
x1 = 0.4995 | 0.92
x1 = 0.6003 | 1.017
x1 = 0.6939 | 1.108
x1 = 0.8082 | 1.256
x1 = 0.9002 | 1.367

CCCCCCCCCCCCCCCCCC(=O)OC + ClC(Cl)=C(Cl)Cl
viscosity [mPa·s], 101 kPa
Conditions | x1 = 0.05 | x1 = 0.1 | x1 = 0.15 | x1 = 0.2 | x1 = 0.25 | x1 = 0.3
298 K | 1.41 | 1.65 | 1.8 | 2.14 | 2.62 | 2.93
303 K | 1.33 | 1.55 | 1.68 | 2.01 | 2.36 | 2.63
308 K | 1.24 | 1.47 | 1.58 | 1.89 | 2.16 | 2.4
313 K | 1.17 | 1.39 | 1.47 | 1.76 | 1.97 | 2.2

CCCCCCCCCCCCCCCCCC(=O)OC + ClC=C(Cl)Cl
viscosity [mPa·s], 101 kPa
Conditions | x1 = 0.05 | x1 = 0.1 | x1 = 0.15 | x1 = 0.2 | x1 = 0.25 | x1 = 0.3
298 K | 0.77 | 1.04 | 1.37 | 1.73 | 2.09 | 2.61
303 K | 0.74 | 0.98 | 1.3 | 1.6 | 1.9 | 2.39
308 K | 0.71 | 0.93 | 1.21 | 1.5 | 1.77 | 2.2
313 K | 0.68 | 0.89 | 1.14 | 1.4 | 1.66 | 2.01

O=Cc1ccccc1 + ClCCCl
viscosity [mPa·s], 101 kPa
Conditions | x1 = 0.3909 | x1 = 0.8163 | x1 = 0.8165 | x1 = 0.9064
293.15 K | 1.085 | 1.445 | – | –
303.15 K | – | – | 1.225 | 1.285

CC(F)F + FC(F)C(F)(F)F
viscosity [mPa·s], 101 kPa
Conditions | x2 = 0.248 | x2 = 0.504 | x2 = 0.758
298.15 K | 0.1447 | 0.1487 | 0.1533
313.15 K | 0.1172 | 0.1234 | 0.13

CC(F)F + FCC(F)(F)F
viscosity [mPa·s], 101 kPa
Conditions | x1 = 0.259 | x1 = 0.5 | x1 = 0.75
298.15 K | 0.1801 | 0.1772 | 0.1647
313.15 K | 0.1504 | 0.1444 | 0.1397

O.O.O.O.O.O=S(=O)([O-])[S-].[Na+].[Na+] + N#C[S-].[K+]
101.33 kPa, x2 = 0.3
Conditions | viscosity [mPa·s]
294 K | 39.21
298 K | 31.11
303 K | 24.56
308 K | 19.44
313 K | 15.6
318 K | 13.1
323 K | 10.89

O.O.O.O.O.O=S(=O)([O-])[S-].[Na+].[Na+] + N#C[S-].[Na+]
101.33 kPa, x2 = 0.3
Conditions | viscosity [mPa·s]
308 K | 30.26
313 K | 23.84
318 K | 19.42
323 K | 15.54

C[N+](C)(C)CCO.[Cl-] + NCCO
101 kPa
Conditions | viscosity [mPa·s]
293.15 K, x1 = 0.091 | 40.5
293.15 K, x1 = 0.111 | 48.81
293.15 K, x1 = 0.143 | 51.72
298.15 K, x1 = 0.125 | 38.64
303.15 K, x1 = 0.125 | 30.08
308.15 K, x1 = 0.125 | 23.81
313.15 K, x1 = 0.091 | 16.33
313.15 K, x1 = 0.111 | 20.81
313.15 K, x1 = 0.125 | 19.3
313.15 K, x1 = 0.143 | 21.41
318.15 K, x1 = 0.125 | 15.79
323.15 K, x1 = 0.125 | 12.88

CCCC[N+](CCCC)(CCCC)CCCC.[Cl-] + N[C@@H](CO)C(=O)O
Conditions | viscosity [mPa·s]
323.15 K, 101 kPa, x1 = 0.9 | 491

CC(O)C(C)O (stereo not drawn) + O
viscosity [mPa·s]
Conditions | 303.15 K | 308.15 K | 313.15 K | 318.15 K | 323.15 K
101 kPa, x1 = 0.01 | 0.943 | 0.842 | 0.759 | 0.69 | 0.632
101 kPa, x1 = 0.0199 | 1.108 | 0.982 | 0.877 | 0.792 | 0.719
101 kPa, x1 = 0.03 | 1.294 | 1.138 | 1.01 | 0.905 | 0.816
101 kPa, x1 = 0.0399 | 1.506 | 1.312 | 1.155 | – | 0.919
101 kPa, x1 = 0.0499 | 1.733 | 1.498 | 1.308 | 1.155 | 1.028
101 kPa, x1 = 0.0601 | 1.985 | 1.7 | 1.471 | 1.292 | 1.145
101 kPa, x1 = 0.0699 | 2.242 | 1.91 | 1.649 | 1.436 | 1.264
101 kPa, x1 = 0.08 | 2.53 | 2.135 | 1.826 | 1.586 | 1.39
101 kPa, x1 = 0.0899 | 2.79 | 2.345 | 1.998 | 1.724 | 1.503
101 kPa, x1 = 0.1 | 3.084 | 2.571 | 2.182 | 1.868 | 1.622
101.3 kPa, x1 = 0.1176 | – | 3.174 | 2.627 | 2.203 | –
101.3 kPa, x1 = 0.2307 | – | 6.873 | 5.405 | 4.363 | –
101.3 kPa, x1 = 0.3181 | – | 10.06 | 7.822 | 6.198 | –
101.3 kPa, x1 = 0.4443 | – | 15.66 | 11.92 | 9.192 | –
101.3 kPa, x1 = 0.5311 | – | 20.41 | 15.17 | 11.64 | –
101.3 kPa, x1 = 0.6427 | – | 27.5 | 20.24 | 15.02 | –
101.3 kPa, x1 = 0.8275 | – | 41.68 | 29.62 | 21.32 | –
101.3 kPa, x2 = 0.3539 | – | 12.95 | – | – | –

From the CheMixHub viscosity set
